PMC2680759, “Non-Invasive Molecular Imaging of Fibrosis Using a Collagen-Targeted Peptidomimetic of the Platelet Collagen Receptor Glycoprotein VI” (PLoS ONE, 2009)
Bridges are numbered along the chain shown (N, C = ends). Where no end group is shown, it is not given here.

Tested on: collagen in sections of rat aorta and tail tendon
Experiment: Histochemical analysis of rat aorta and tail tendon sections
Conditions: frozen sections of rat aorta and tail tendon, biotin-peptide 200 µg/mL, HRP-coupled streptavidin
Method: Sections were counter-stained with hematoxylin-eosin (Merck). Collagen was stained using picrosirius red. Sections ([…]) of rat tail tendon were processed as above.

SGSGCGPQGARGLTGASAGGPC (disulfide 5-22 (inferred)) [reference compound]
Histochemical staining of tissue collagen: not
